Measurements from patent publication US10556902B2 (Asceneuron SA, priority 2016, dated 2020).

biological target: His-Tagged hOGA (human O-GlcNAcase) (Homo sapiens (Human), UniProt O60502); experiment: Human O-GlcNAcase enzyme inhibition assay; assay type: biochemical; details: OGA enzyme inhibition assay; FL-GlcNAc substrate, pH 6.5; activity classes defined in μM; read-out: OGA IC50;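 further: reactions contained 20 nM His-tagged hOGA enzyme with 10 µM FL-GlcNAc substrate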
Sequence (O60502 whole entry): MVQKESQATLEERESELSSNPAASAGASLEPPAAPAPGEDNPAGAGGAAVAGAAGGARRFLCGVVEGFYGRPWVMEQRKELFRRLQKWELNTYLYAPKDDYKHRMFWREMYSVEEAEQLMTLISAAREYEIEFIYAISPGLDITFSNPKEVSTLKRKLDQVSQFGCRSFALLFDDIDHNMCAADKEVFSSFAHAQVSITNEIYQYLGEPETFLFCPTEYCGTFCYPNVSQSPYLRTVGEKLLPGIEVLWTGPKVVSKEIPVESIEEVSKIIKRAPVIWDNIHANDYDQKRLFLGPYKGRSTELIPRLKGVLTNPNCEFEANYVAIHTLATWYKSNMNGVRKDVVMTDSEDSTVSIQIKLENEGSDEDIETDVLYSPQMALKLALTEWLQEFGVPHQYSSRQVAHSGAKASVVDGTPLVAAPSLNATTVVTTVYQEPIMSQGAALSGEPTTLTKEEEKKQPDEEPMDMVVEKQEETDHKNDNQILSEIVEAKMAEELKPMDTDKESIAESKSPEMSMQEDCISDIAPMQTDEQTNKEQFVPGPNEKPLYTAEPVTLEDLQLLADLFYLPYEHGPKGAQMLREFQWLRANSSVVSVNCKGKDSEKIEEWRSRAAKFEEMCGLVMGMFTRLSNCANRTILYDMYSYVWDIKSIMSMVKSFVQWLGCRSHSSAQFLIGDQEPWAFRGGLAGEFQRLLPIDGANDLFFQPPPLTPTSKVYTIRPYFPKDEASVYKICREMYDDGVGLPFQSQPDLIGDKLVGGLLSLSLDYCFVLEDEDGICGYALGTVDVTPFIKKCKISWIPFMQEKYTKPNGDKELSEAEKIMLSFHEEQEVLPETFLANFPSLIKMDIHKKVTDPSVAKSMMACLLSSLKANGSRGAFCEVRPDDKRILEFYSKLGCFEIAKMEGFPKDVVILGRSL
Experimental: Then, 20 nM of His-Tagged hOGA and 10 μM of FL-GlcNAc (Fluorescein mono-beta-D-(2-deoxy-2-N-acetyl) glucopyranoside; Marker Gene Technologies Inc, M1485) were added to the 384-well plate for a final volume of 20 μl.

IC50 [µM] | Structure (SMILES)
< 0.05 | CC(c1ccc2nccnc2c1)N1CCN(c2ncc3c(n2)CCNC3)CC1 (racemic) [Example 8, 2-(4-(1-(quinoxalin-6-yl)ethyl)piperazin-1-yl)-5,6,7,8-tetrahydropyrido [4,3-d] pyrimidine]
< 0.05 | CC(=O)N1CCc2nc(N3CCN(C(C)c4ccc5c(c4)OCC5)CC3)sc2C1 (racemic) [Example 10, 1-(2-(4-(1-(2,3-dihydrobenzofuran-6-yl)ethyl)piperazin-1-yl)-6,7-dihydrothiazolo[5,4-c]pyridin-5(4H)-yl)ethan-1-one]
< 0.05 | CC(c1ccc2c(c1)OCC2)N1CCN(c2nc3c(s2)C(=O)N(C)CC3)CC1 (racemic) [Example 13, 2-(4-(1-(2,3-dihydrobenzofuran-6-yl)ethyl)piperazin-1-yl)-5-methyl-6,7-dihydrothiazolo[5,4-c]pyridin-4(5H)-one]
< 0.05 | CC(c1ccc2c(c1)OCC2)N1CCN(c2nc3c(s2)CN(C)CC3)CC1 (racemic) [Example 16, 2-(4-(1-(2,3-dihydrobenzofuran-6-yl)ethyl)piperazin-1-yl)-5-methyl-4,5,6,7-tetrahydrothiazolo[5,4-c]pyridine]
< 0.05 | Cc1nnc(C2CCN(C(C)c3ccc4c(c3)OCC4)CC2)o1 (racemic) [Example 23, 2-(1-(1-(2,3-dihydrobenzofuran-6-yl)ethyl)piperidin-4-yl)-5-methyl-1,3,4-oxadiazole]
0.05 to 0.2 | CC(=O)Nc1cnn(C2CCN(C(C)c3ccc4c(c3)OCC4)CC2)c1 (racemic) [Example 25, N-(1-(1-(1-(2,3-dihydrobenzofuran-6-yl)ethyl)piperidin-4-yl)-1H-pyrazol-4-yl)acetamide]
0.2 to 1 | CC(c1ccc2c(c1)OCC2)N1CCC(n2cc(C(F)(F)F)cn2)CC1 (racemic) [Example 29, 1-(1-(2,3-Dihydrobenzofuran-6-yl)ethyl)-4-(4-(trifluoromethyl)-1H-pyrazol-1-yl) piperidine]
< 0.05 | CC(O)c1ccc(N2CCN(C(C)c3ccc4c(c3)OCC4)CC2)nn1 (racemic) [Example 35, 1-(6-(4-(1-(2,3-dihydrobenzofuran-6-yl)ethyl)piperazin-1-yl)pyridazin-3-yl)ethan-1-ol]
0.2 to 1 | CC(c1ccc2nccnc2c1)N1CCN(c2nnc(CO)s2)CC1 (racemic) [Example 37, (5-(4-(1-(quinoxalin-6-yl)ethyl)piperazin-1-yl)-1,3,4-thiadiazol-2-yl)methanol]
< 0.05 | CC(c1ccc2c(c1)OCC2)N1CCN(c2ccc(C(F)(F)F)nn2)CC1 (racemic) [Example 40, 3-(4-(1-(2,3-dihydrobenzofuran-6-yl)ethyl)piperazin-1-yl)-6-(trifluoromethyl)pyridazine]
0.2 to 1 | Cc1ccc(N2CCN(C(C)c3ccc4nccnc4c3)CC2)nn1 (racemic) [Example 44, 6-(1-(4-(6-Methylpyridazin-3-yl)piperazin-1-yl)ethyl)quinoxaline]
< 0.05 | CC(c1ccc2c(c1)OCC2)N1CCN(c2ccc(S(C)(=O)=O)nn2)CC1 (racemic) [Example 45, 3-(4-(1-(2,3-dihydrobenzofuran-6-yl)ethyl)piperazin-1-yl)-6-(methylsulfonyl)pyridazine]
< 0.05 | CC(O)c1ccc(N2CCN(C(C)c3ccc4c(c3)OCC4)CC2)nc1 (racemic) [Example 47, 1-(6-(4-(1-(2,3-dihydrobenzofuran-6-yl)ethyl)piperazin-1-yl)pyridin-3-yl)ethan-1-ol]
< 0.05 | CC(c1ccc2c(c1)OCC2)N1CCN(c2ccc(C(C)(C)O)cn2)CC1 (racemic) [Example 48, 2-(6-(4-(1-(2,3-dihydrobenzofuran-6-yl)ethyl)piperazin-1-yl)pyridin-3-yl)propan-2-ol]
< 0.05 | CC(C)C(O)c1ccc(N2CCN(C(C)c3ccc4c(c3)OCC4)CC2)nc1 (racemic) [Example 49, 1-(6-(4-(1-(2,3-dihydrobenzofuran-6-yl)ethyl)piperazin-1-yl)pyridin-3-yl)-2-methylpropan-1-ol]
< 0.05 | CC(c1ccc2c(c1)OCC2)N1CCN(c2ccc(C(O)C(F)(F)F)cn2)CC1 (racemic) [Example 50, 1-(6-(4-(1-(2,3-dihydrobenzofuran-6-yl)ethyl)piperazin-1-yl)pyridin-3-yl)-2,2,2-trifluoroethan-1-ol]
0.2 to 1 | CC(O)c1ccc(N2CCN(C(C)c3ccc4nccnc4c3)CC2)nc1 (racemic) [Example 52, 1-(6-(4-(1-(quinoxalin-6-yl)ethyl)piperazin-1-yl)pyridin-3-yl)ethan-1-ol]
0.2 to 1 | CC(c1ccc2nccnc2c1)N1CCN(c2ccc(=O)[nH]c2)CC1 (racemic) [Example 54, 5-(4-(1-(quinoxalin-6-yl)ethyl)piperazin-1-yl)pyridin-2(1H)-one]

The remaining lines, values behind:

Structure (SMILES) | IC50 [µM]
CC(=O)N1CCc2nc(N3CCN(C(C)c4ccc5nccnc5c4)CC3)ncc2C1 (racemic) [Example 6, 1-(2-(4-(1-(quinoxalin-6-yl)ethyl)piperazin-1-yl)-7,8-dihydropyrido[4,3-d]pyrimidin-6(5H)-yl)ethan-1-one] | 0.05 to 0.2
CC(c1ccc2nccnc2c1)N1CCN(c2ncc3c(n2)CCN(C)C3)CC1 (racemic) [Example 9, 6-methyl-2-(4-(1-(quinoxalin-6-yl)ethyl)piperazin-1-yl)-5,6,7,8-tetrahydropyrido[4,3-d]pyrimidine] | < 0.05
CC(=O)N1CCc2nc(N3CCN(C(C)c4ccc5nccnc5c4)CC3)sc2C1 (racemic) [Example 11, 1-(2-(4-(1-(quinoxalin-6-yl)ethyl)piperazin-1-yl)-6,7-dihydrothiazolo[5,4-c]pyridin-5(4H)-yl)ethan-1-one] | 0.05 to 0.2
CC(c1ccc2nccnc2c1)N1CCN(c2nc3c(s2)C(=O)N(C)CC3)CC1 (racemic) [Example 14, 5-methyl-2-(4-(1-(quinoxalin-6-yl)ethyl)piperazin-1-yl)-6,7-dihydrothiazolo[5,4-c]pyridin-4(5H)-one] | 0.2 to 1
CC(c1ccc2c(c1)OCC2)N1CCN(c2nc3c(s2)CNCC3)CC1 (racemic) [Example 15, 2-(4-(1-(2,3-dihydrobenzofuran-6-yl)ethyl)piperazin-1-yl)-4,5,6,7-tetrahydrothiazolo[5,4-c]pyridine] | < 0.05
CC(c1ccc2nccnc2c1)N1CCN(c2nc3c(s2)CNCC3)CC1 (racemic) [Example 19, 2-(4-(1-(quinoxalin-6-yl)ethyl)piperazin-1-yl)-4,5,6,7-tetrahydrothiazolo[5,4-c]pyridine] | 0.05 to 0.2
CC(c1ccc2nccnc2c1)N1CCN(c2nc3c(s2)CN(C)CC3)CC1 (racemic) [Example 20, 5-Methyl-2-(4-(1-(quinoxalin-6-yl)ethyl)piperazin-1-yl)-4,5,6,7-tetrahydrothiazolo[5,4-c]pyridine] | 0.05 to 0.2
CC(c1ccc2nccnc2c1)N1CCN(c2n[nH]c(=O)s2)CC1 (racemic) [Example 21, 5-(4-(1-(quinoxalin-6-yl)ethyl)piperazin-1-yl)-1,3,4-thiadiazol-2(3H)-one] | 0.05 to 0.2
CC(c1ccc2nccnc2c1)N1CCC(c2n[nH]c(=O)o2)CC1 (racemic) [Example 22, 5-(1-(1-(quinoxalin-6-yl)ethyl)piperidin-4-yl)-1,3,4-oxadiazol-2(3H)-one] | 0.2 to 1
Cc1nnc(C2CCN(C(C)c3ccc4nccnc4c3)CC2)o1 (racemic) [Example 24, 2-methyl-5-(1-(1-(quinoxalin-6-yl)ethyl)piperidin-4-yl)-1,3,4-oxadiazole] | 0.2 to 1
CC(=O)Nc1cnn(C2CCN(C(C)c3ccc4nccnc4c3)CC2)c1 (racemic) [Example 27, N-(1-(1-(1-(quinoxalin-6-yl)ethyl)piperidin-4-yl)-1H-pyrazol-4-yl)acetamide] | 1 to 10
CC(c1ccc2c(c1)OCC2)N1CCC(n2cc(CO)cn2)CC1 (racemic) [Example 28, (1-(1-(1-(2,3-dihydrobenzofuran-6-yl)ethyl)piperidin-4-yl)-1H-pyrazol-4-yl) methanol] | 0.2 to 1
CC(c1ccc2c(c1)OCC2)N1CCC(n2cc(F)cn2)CC1 (racemic) [Example 30, 1-(1-(2,3-dihydrobenzofuran-6-yl)ethyl)-4-(4-fluoro-1H-pyrazol-1-yl)piperidine] | 0.2 to 1
CCOC(=O)c1cnn(C2CCN(C(C)c3ccc4c(c3)OCC4)CC2)c1 (racemic) [Example 32, Ethyl 1-(1-(1-(2,3-dihydrobenzofuran-6-yl)ethyl)piperidin-4-yl)-1H-pyrazole-4-carboxylate] | 0.05 to 0.2
CC(c1ccc2c(c1)OCC2)N1CCC(n2cc(S(C)(=O)=O)cn2)CC1 (racemic) [Example 34, 1-(1-(2,3-dihydrobenzofuran-6-yl)ethyl)-4-(4-(methylsulfonyl)-1H-pyrazol-1-yl)piperidine] | 0.2 to 1
CC(O)c1ccc(N2CCN(C(C)c3ccc4nccnc4c3)CC2)nn1 (racemic) [Example 36, 1-(6-(4-(1-(quinoxalin-6-yl)ethyl)piperazin-1-yl)pyridazin-3-yl)ethan-1-ol] | 0.2 to 1
CC(c1ccc2nccnc2c1)N1CCN(c2ccc(F)nn2)CC1 (racemic) [Example 41, 6-(1-(4-(6-Fluoropyridazin-3-yl)piperazin-1-yl)ethyl)quinoxaline] | 0.2 to 1
CC(c1ccc2nccnc2c1)N1CCN(c2ccc(C(F)(F)F)nn2)CC1 (racemic) [Example 42, 6-(1-(4-(6-(trifluoromethyl)pyridazin-3-yl)piperazin-1-yl)ethyl)quinoxaline] | 0.2 to 1
CC(c1ccc2nccnc2c1)N1CCN(c2ccc(I)nn2)CC1 (racemic) [Example 43] | 0.2 to 1
CC(c1ccc2nccnc2c1)N1CCN(c2ccc(C(C)(C)O)cn2)CC1 (racemic) [Example 51, 2-(6-(4-(1-(quinoxalin-6-yl)ethyl)piperazin-1-yl)pyridin-3-yl) propan-2-ol] | 0.05 to 0.2
COc1ccc(N2CCN(C(C)c3ccc4nccnc4c3)CC2)cn1 (racemic) [Example 53, 6-(1-(4-(6-methoxypyridin-3-yl)piperazin-1-yl)ethyl)quinoxaline] | 0.2 to 1
CC(C)C(O)c1ccc(N2CCN(C(C)c3ccc4nccnc4c3)CC2)nc1 (racemic) [Example 55, 2-methyl-1-(6-(4-(1-(quinoxalin-6-yl)ethyl)piperazin-1-yl)pyridin-3-yl)propan-1-ol] | 0.2 to 1
